Non-standard residues stand in square brackets, D forms with d. Cit = NC(=O)NCCC[C@H](N)C(=O)O
Key:
HLA-DR1 molecules = assay: release of biotin-labeled hMBP(90-102) from HLA-DR1 without unlabeled antigenic peptide (assay I); type: binding, human; conditions: for Relative Release: Table 36, AE101 series compound 64 μM, fraction of o.d. of positive control (PBS only = 1.0; negative control = 0.0)
[1] = molecular target: T1, murine E^d MHC class II allele (Mus musculus, UniProt P01904+P01915); assay: simultaneous assay, E^d allele (A20 APC, G28.C9 T hybridoma, HEL106-116; HT-2 [3H]TdR readout); type: cell-based; parameters: The A20 and CH27 B cell lymphoma lines express H-2^d and H-2^k alleles, respectively; endogenous in cells; host or cells: A20 B cell lymphoma (mitomycin C-treated or paraformaldehyde-fixed); conditions: for Times Baseline Response, Ed: Table 3
T1 sequence (P01904 26-255): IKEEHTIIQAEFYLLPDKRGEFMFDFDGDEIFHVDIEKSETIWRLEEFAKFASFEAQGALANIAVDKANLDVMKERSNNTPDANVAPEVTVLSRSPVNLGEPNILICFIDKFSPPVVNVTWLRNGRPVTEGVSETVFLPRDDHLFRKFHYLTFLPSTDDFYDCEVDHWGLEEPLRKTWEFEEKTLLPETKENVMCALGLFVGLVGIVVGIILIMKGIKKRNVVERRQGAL
T1 sequence (P01915 27-264 limits assumed): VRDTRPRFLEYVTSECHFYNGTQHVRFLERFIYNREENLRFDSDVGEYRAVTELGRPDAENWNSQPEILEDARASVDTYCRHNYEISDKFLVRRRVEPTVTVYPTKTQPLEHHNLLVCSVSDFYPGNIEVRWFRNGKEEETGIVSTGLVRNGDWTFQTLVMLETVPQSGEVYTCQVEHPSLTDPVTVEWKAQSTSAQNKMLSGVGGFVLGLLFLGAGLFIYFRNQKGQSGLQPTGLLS
Protocol: (§1) Examples 1-4 (Tables 1-18) will be briefly considered in order to establish the concept of tolerance discussed above. These examples describe experimental results observed in the so-called “simultaneous” assay. In the simultaneous assay four principle components are cultured together for a 24 hour period. The components of this culture, which are added simultaneously, are: (a) an antigenic peptide characterized by the ability to bind specifically into the antigenic peptide binding groove of an MHC class II molecule, (b) mitomycin C-treated, MHC class II-positive antigen presenting cells (APC) bearing the MHC class II allele required for binding of the specific antigenic peptide, and presentation of the specific antigenic peptide to the antigenic peptide-specific T cell hybridoma, (c) an effector compound of the present invention, and (d) an MHC class II allele-restricted T cell hybridoma specific for the antigenic peptide and the MHC class II allele restricting its presentation. Following incubation of this primary culture, an aliquot of its supernatant is transferred into a second culture well for incubation with an interleukin-dependent lymphoblastoid cell line. The degree of stimulation of that second, indicator cell by the interleukins which had been released from the activated T cell hybridoma in the primary culture is measured by quantitating tritiated thymidine deoxyribose {[^3H]TdR} uptake into the DNA of the HT-2 indicator cells of that second culture.
(§2) In the “simultaneous assay” the four components of the assay are cultured together for a 24 h period. The components of this primary culture, added at the same time or simultaneously, are: (a) the antigenic peptide, (b) mitomycin C-treated, MHC class II-positive antigen presenting cells (APC) with the MHC class II allele required for binding of the specific antigenic peptide and its presentation to the antigenic peptide-specific T cell hybridoma, (c) an AE101 series effector peptide, and (d) MHC class II allele-restricted T cell hybridoma specific for the antigenic peptide and the MHC class II allele restricting its presentation. At the end of the incubation of this primary culture, an aliquot of its supernatant is transferred into a second culture well for incubation with an interleukin-dependent lymphoblastoid cell line. The degree of stimulation of that second, indicator cell by the interleukins which had been released from the activated T cell hybridoma in the primary culture is measured by quantitating tritiated thymidine deoxyribose {[^3H]TdR} uptake into the DNA of the HT-2 indicator cells of that second culture.
(§3) For these various assays, the following antigenic peptides were used: HEL11-25, hen egg lysozyme 11-25, AMKRHGLDNYRGYSL(A^d) (SEQ ID NO:5); HEL46-61, hen egg lysozyme 46-61, NTDGSTDYGILQINSR(Ak) (SEQ ID NO:6); HEL106-116, hen egg lysozyme 106-116, NAWVAWRNRCK (E^d) (SEQ ID NO:7); PGCC81-104, pigeon cytochrome c 81-104, […] (Ek) (SEQ ID NO:8), and THMCC82-103, tobacco hornworm moth cytochrome c 82-103, […] (Ek) (SEQ ID NO:9). AE101 series peptides were obtained from commercial sources. In general, the purity and composition of each peptide was confirmed by HPLC separation and mass spectrometry. The native protein antigens were HEL, hen egg lysozyme, and PGCC, pigeon cytochrome C. They were obtained from commercial sources.
(§4) For the experiments of these Examples, several T cell hybridomas, which are specific for certain antigenic peptides, were used. The TPc9.1 T hybridoma is specific for pigeon cytochrome C 81-104 peptide presented on the murine class II MHC allele E^k. The TPc9.1 hybridoma responds heteroclitically to tobacco hornworm moth cytochrome c 82-103 on E^k. The 3A9 T hybridoma is specific for hen egg lysozyme 46-61 on A^k. The 9.30.B2 hybridoma is specific for hen egg lysozyme 11-25 on A^d, and the G28.C9 hybridoma is specific for hen egg lysozyme 106-116 on E^d. […]

[2] = tested on: murine E^k MHC class II allele; assay: simultaneous assay, E^k allele (CH27 APC, TPc9.1 T hybridoma, THMCC82-103 or PGCC81-104); type: cell-based; conditions: for Times Baseline Response, Ek: Table 3, values reduced relative to E^d by a factor of 10
Protocol: as §1, §2, §3, §4

[3] = molecular target: soluble HLA-DR1 (HLA-DR alpha truncated after Asn192 with a C-terminal nine amino acid HA epitope tail; HLA-DR1 beta truncated after Lys198), made in Baculovirus-infected insect cells (human); assay: release ELISA: soluble HLA-DR1 tethered by 12CA5 and preloaded with biotin-hMBP(90-102); AE peptide 64 uM, 1 h 37 C, no unlabeled peptide; biotin still bound read by avidin-HRP (1.0 = PBS control, 0.0 = no DR1; low value = released)
[4] = Table 1, AE peptide 16 μM (second value), 0.4 μM HEL106-116, supernatant 1:4
[5] = Table 1, AE peptide 64 μM (first value), 0.4 μM HEL106-116, supernatant 1:4
[6] = Table 1, AE peptide 16 μM (second value), 0.075 μM THMCC82-103, supernatant 1:2
[7] = Table 1, AE peptide 64 μM (first value), 0.075 μM THMCC82-103, supernatant 1:2
[8] = Table 6, AE peptide 64 μM, supernatant 1:4
[9] = Table 6, AE peptide 64 μM, supernatant 1:4, reduced by a factor of 5
[10] = AE peptide 64 μM, supernatant 1:4
[11] = Table 9, AE peptide 64 μM, supernatant 1:4
[12] = Table 9, AE peptide 64 μM, supernatant 1:4, normalized by a factor of 5
[13] = Table 5, AE peptide 64 μM, supernatant 1:4
[14] = Table 5, AE peptide 64 μM, supernatant 1:4, normalized to E^d by a factor of 10
[15] = Table 10, AE peptide 16 μM (second value), supernatant 1:2
[16] = Table 10, AE peptide 64 μM (first value), supernatant 1:2
[17] = Table 10, AE peptide 64 μM, supernatant 1:2 (first value)
[18] = Table 10, AE peptide 64 μM, supernatant 1:4 (second value)

Molecule: KLPKSAKPVSQMR [AE103]
- Relative Release (HLA-DR1 molecules): 0.01
- Times Baseline Response, E^d [1, 4]: 1.3
- Times Baseline Response, E^d [1, 5]: 3.4
- Times Baseline Response, E^k [2, 6]: 0.7, 0.7
- Times Baseline Response, E^k [2, 7]: 0.7, 0.7

Molecule: PKSAKPVSQMR [AE104]
- Relative Release (HLA-DR1 molecules): 0.02
- Times Baseline Response, E^d [1, 4]: 0.9
- Times Baseline Response, E^d [1, 5]: 2.6
- Times Baseline Response, E^k [2, 6]: 1.1
- Times Baseline Response, E^k [2, 7]: 0.8

Molecule: YRMKLPKSAKPVSQ [AE106]
- release of hMBP(90-102) from HLA-DR1 (HLA-DR1 molecules; AE peptide at 125 nM, additional experiments): completely release
- Relative Release (HLA-DR1 molecules): −0.12
- Times Baseline Response, E^d [1, 4]: 4.4
- Times Baseline Response, E^d [1, 5]: 16.9
- Times Baseline Response, E^k [2, 6]: 0.9
- Times Baseline Response, E^k [2, 7]: 2.0

Molecule: Ac-LRM N LPK-NH2 [AE216]
- Times Baseline Response, E^d [1, 8]: 2.4
- Times Baseline Response, E^k [2, 9]: 3.3

Molecule: Ac-Q RMKLPK-NH2 [AE188]
- Times Baseline Response, Ed [1, 10]: 8.8
- Times Baseline Response, Ek [2, 10]: 7.7

Molecule: Ac-LRMKLP L-NH2 [AE251]
- Times Baseline Response, E^d [1, 11]: 11.9
- Times Baseline Response, E^k [2, 12]: 18.6

Molecule: Ac-LRMKLpk-NH2 [AE173]
- Times Baseline Response, E^d ([1]; Table 12, AE peptide 1 μM (fourth value), supernatant 1:2): 2
- Times Baseline Response, E^d ([1]; Table 12, AE peptide 4 μM (third value), supernatant 1:2): 10
- Times Baseline Response, E^d ([1]; Table 12, AE peptide 16 μM (second value), supernatant 1:2): 92
- Times Baseline Response, E^d ([1]; Table 12, AE peptide 64 μM (first value), supernatant 1:2): 123
- Times Baseline Response, E^k ([2]; Table 12, AE peptide 1 μM (fourth value), supernatant 1:4): 2.1
- Times Baseline Response, E^k ([2]; Table 12, AE peptide 4 μM (third value), supernatant 1:4): 4.3
- Times Baseline Response, E^k ([2]; Table 12, AE peptide 16 μM (second value), supernatant 1:4): 25.0
- Times Baseline Response, E^k ([2]; Table 12, AE peptide 64 μM (first value), supernatant 1:4): 51.3

Molecule: Ac-LRM Y LPK-NH2 [AE219]
- Times Baseline Response, E^d [1, 8]: 7.1
- Times Baseline Response, E^k [2, 9]: 8.8

Molecule: Ac-YRMKLPKS-NH2 [AE112]
- Times Baseline Response, E^d [1, 4]: 26.2
- Times Baseline Response, E^d [1, 5]: 42.8
- Times Baseline Response, E^k [2, 6]: 3.2
- Times Baseline Response, E^k [2, 7]: 15.3

Molecule: Ac-[Cit]RMKLPK-NH2 [AE181]
- Times Baseline Response, Ed [1, 10]: 9.0
- Times Baseline Response, Ek [2, 10]: 11.5

Molecule: Ac-LRMKLP H-NH2 [AE243]
- Times Baseline Response, E^d [1, 11]: 7.2
- Times Baseline Response, E^k [2, 12]: 14.5

Molecule: SAKPVSQMR [AE105]
- Relative Release (HLA-DR1 molecules): 0.16
- Times Baseline Response, E^d [1, 4]: 1.1
- Times Baseline Response, E^d [1, 5]: 4.5
- Times Baseline Response, E^k [2, 6]: 0.8
- Times Baseline Response, E^k [2, 7]: 0.7

Molecule: Ac-LR K KLPK-NH2 [AE199]
- Times Baseline Response, E^d [1, 13]: 12.1
- Times Baseline Response, E^k [2, 14]: 22.9

Molecule: Ac-LRM HArg LPK-NH2 [AE212]
- Times Baseline Response, E^d [1, 8]: 13.2
- Times Baseline Response, E^k [2, 9]: 15.4

Molecule: Ac-N RMKLPK-NH2 [AE187]
- Times Baseline Response, Ed [1, 10]: 6.3
- Times Baseline Response, Ek [2, 10]: 9.5

Molecule: Ac-LR F KLPK-NH2 [AE204]
- Times Baseline Response, E^d [1, 13]: 14.0
- Times Baseline Response, E^k [2, 14]: 31.8

Molecule: Ac-LRMKLP E-NH2 [AE245]
- Times Baseline Response, E^d [1, 11]: 0.9
- Times Baseline Response, E^k [2, 12]: 2.8

Molecule: Ac-M RMKLPK-NH2 [AE190]
- Times Baseline Response, Ed [1, 10]: 9.8
- Times Baseline Response, Ek [2, 10]: 15.2

Molecule: Ac-LRM[Cit]LPK-NH2 [AE211]
- Times Baseline Response, E^d [1, 8]: 1.7
- Times Baseline Response, E^k [2, 9]: 3.4

Molecule: Ac-D RMKLPK-NH2 [AE185]
- Times Baseline Response, Ed [1, 10]: 1.2
- Times Baseline Response, Ek [2, 10]: 0.9

Molecule: Ac-YRMKLPKSAA-NH2 [AE128]
- Times Baseline Response, E^d [1, 15]: 29.5
- Times Baseline Response, E^d [1, 16]: 33.0
- Times Baseline Response, E^k [2, 17]: 51.9
- Times Baseline Response, E^k [2, 18]: 58.6

Molecule: Ac-LR Q KLPK-NH2 [AE203]
- Times Baseline Response, E^d [1, 13]: 14.1
- Times Baseline Response, E^k [2, 14]: 20.5

Molecule: Ac-LRM E LPK-NH2 [AE215]
- Times Baseline Response, E^d [1, 8]: 0.7
- Times Baseline Response, E^k [2, 9]: 0.4

Molecule: Ac-YRMALPKSAK-NH2 [AE123]
- Times Baseline Response, E^d [1, 15]: 10.7
- Times Baseline Response, E^d [1, 16]: 24.0
- Times Baseline Response, E^k [2, 17]: 65.0
- Times Baseline Response, E^k [2, 18]: 51.1

Molecule: Ac-HArg RMKLPK-NH2 [AE182]
- Times Baseline Response, Ed [1, 10]: 18.8
- Times Baseline Response, Ek [2, 10]: 26.5

Molecule: Ac-K RMKLPK-NH2 [AE184]
- Times Baseline Response, Ed [1, 10]: 14.1
- Times Baseline Response, Ek [2, 10]: 11.8

Molecule: YRMKLPKSAKPVSQ [AE106]
- Relative Release (fraction of positive control o.d.) [3]: -0.12

— patent US6835382B2, “Ii peptide therapeutics to enhance antigen presentation” (University of Massachusetts, priority 1996, dated 2004)
